Read-outs that look alike come from different tables or passages of the source. Where only a bound is given, the exact number is not on record here.

From patent publication US20220356174A1, “PYRIDIN-2-ONE COMPOUNDS USEFUL AS SMARCA2 ANTAGONISTS” (Epizyme, Inc., priority 2018, published 2022) come the findings set out here.

In one test the target is FL-SMARCA4 (Homo sapiens, UniProt P51532). Nature of the test: SMARCA4 ATPase activity assay (ADP-Glo, chicken mononucleosome substrate). On the technique in general: In ADP-Glo the light output rises with the ADP produced.
Sequence of FL-SMARCA4 (P51532 whole entry, canonical isoform): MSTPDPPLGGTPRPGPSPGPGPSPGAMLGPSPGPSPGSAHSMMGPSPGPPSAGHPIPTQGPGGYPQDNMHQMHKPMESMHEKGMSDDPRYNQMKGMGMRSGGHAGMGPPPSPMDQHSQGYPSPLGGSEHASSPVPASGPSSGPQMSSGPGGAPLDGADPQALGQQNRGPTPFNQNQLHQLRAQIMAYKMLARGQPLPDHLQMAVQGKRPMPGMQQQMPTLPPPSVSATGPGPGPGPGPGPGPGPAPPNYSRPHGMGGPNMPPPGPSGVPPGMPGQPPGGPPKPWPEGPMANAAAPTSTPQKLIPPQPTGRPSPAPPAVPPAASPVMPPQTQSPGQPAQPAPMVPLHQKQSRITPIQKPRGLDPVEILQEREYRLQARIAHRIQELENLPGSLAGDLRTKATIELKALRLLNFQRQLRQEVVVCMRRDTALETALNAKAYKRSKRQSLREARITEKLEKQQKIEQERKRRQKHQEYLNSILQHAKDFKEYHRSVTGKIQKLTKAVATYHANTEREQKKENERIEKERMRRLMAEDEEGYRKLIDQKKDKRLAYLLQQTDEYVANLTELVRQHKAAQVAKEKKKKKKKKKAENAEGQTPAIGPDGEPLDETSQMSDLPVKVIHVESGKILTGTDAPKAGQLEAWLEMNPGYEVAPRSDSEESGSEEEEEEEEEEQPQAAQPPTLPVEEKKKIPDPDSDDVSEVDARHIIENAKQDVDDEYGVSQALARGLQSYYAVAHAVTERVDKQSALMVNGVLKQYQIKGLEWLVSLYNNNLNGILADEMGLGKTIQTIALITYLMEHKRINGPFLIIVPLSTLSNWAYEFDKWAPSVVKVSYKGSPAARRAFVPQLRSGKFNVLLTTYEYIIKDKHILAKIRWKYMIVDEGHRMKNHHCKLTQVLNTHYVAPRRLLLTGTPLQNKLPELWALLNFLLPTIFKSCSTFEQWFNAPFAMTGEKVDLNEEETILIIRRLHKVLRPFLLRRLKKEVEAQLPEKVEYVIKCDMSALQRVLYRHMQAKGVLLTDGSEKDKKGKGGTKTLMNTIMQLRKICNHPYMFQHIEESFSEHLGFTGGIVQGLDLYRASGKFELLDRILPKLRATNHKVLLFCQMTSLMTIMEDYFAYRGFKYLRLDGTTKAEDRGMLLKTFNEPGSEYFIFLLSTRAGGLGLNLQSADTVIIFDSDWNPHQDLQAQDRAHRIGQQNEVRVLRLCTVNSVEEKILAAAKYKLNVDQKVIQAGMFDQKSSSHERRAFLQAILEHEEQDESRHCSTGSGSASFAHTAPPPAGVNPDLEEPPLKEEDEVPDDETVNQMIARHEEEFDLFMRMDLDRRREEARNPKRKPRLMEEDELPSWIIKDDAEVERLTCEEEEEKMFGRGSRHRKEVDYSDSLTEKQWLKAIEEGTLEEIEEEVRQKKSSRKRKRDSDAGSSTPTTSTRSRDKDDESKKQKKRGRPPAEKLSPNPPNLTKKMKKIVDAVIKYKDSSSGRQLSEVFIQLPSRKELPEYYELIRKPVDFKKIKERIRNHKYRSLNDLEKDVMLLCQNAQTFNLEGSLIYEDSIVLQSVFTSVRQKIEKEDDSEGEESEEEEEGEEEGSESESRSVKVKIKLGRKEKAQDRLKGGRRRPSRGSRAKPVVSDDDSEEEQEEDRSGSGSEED
Test [1] addresses T1, FL-SMARCA2 (full-length human SMARCA2 isoform 1) (Homo sapiens, UniProt P51531).
T1 construct: FLAG tag (YKDDDDK) (C); made in house; host or cells: Sf21 insect cells (baculovirus, pFastBacI)
Put plainly: SMARCA2 ATPase activity assay (ADP-Glo, chicken mononucleosome substrate). The test is classed as biochemical. The following applies: ATPase assay, enzyme 5 nM, ATP 250 uM, chicken mononucleosome 10 nM, 30 min preincubation.

The next test deals with A549 cells. Nature of the test: High-throughput proliferation (HTP) assay for A549 cells (CellTiter-Glo, 7 days). It counts as cell-based. The settings on record: Homo sapiens, 168 h, read-out: A549 SMARCA2 IC50. The procedure: Thawing vials: A549 cells (ATCC #CCL-185™) were thawed from a cryovial containing approximately 1.6×10^6 cells frozen in 70% F12K medium, 20% HI-FBS and 10% DMSO. Cells were thawed by submerging the bottom half of the vial in a 37° C. water bath and gently flicked until almost thawed. The cells were transferred into a 15 mL conical tube containing 9 mL of F12K medium+10% HI-FBS and then centrifuged at 200×g for 4 min before drawing off the media without disturbing the cell pellet in order to remove the DMSO. The cells were resuspended again in 15 mL of F12K fresh complete media+10% HI-FBS and grown up in a T75 flask at 37° C. with 5% CO2 Incubator. Viability was measured to obtain baseline.
Frozen stock vials preparation: The cell culture was transferred to a 50 mL conical tube, spun down to remove medium, and resuspended at 1-2×10^6 cells/mL in complete medium containing 10% DMSO. The culture was then stored for 24 hours at −80 degree C., (with the initial rate of freezing is −1 degree C. per minute in a freezing container), then transferred and stored in liquid nitrogen.
(§1) Routine subculture: Sub-confluent cultures (70-80%) were split every 4 days, seeding out at 1-2×10^6 cells/75 cm^2.
Day 0: Assay ready plates were prepared by dispensing 50 nL of compound or DMSO in the appropriate wells of 384-well white CulturPlates using Echo550. Using the Multiflo, A549 cells were plated at 50 μL/well in F12K complete media+10% HI-FBS+1% pen/strep at cell density determined [1,250 cells/mL (62.5 cells/well)] from growth curve.
Treated cells were incubated at 37° C., 5% CO2, relative humidity >90% for 7 days. CellTiter-Glo (CTG) ATP detection reagent was prepared according to manufacturer's specifications. Cell assay plates were removed from the incubator and brought to room temperature (RT). Using the MultiDrop liquid handler, 30 μL of CTG were added per well. Plates were placed on the multidrop dispenser shake for 5 seconds at room temperature (RT). Plates were incubated for 30 minutes in the dark at RT before measuring luminescence using the Envison2104.
Data analysis: Using the DMSO control wells as the 0% inhibition (high signal) control and the 10 μM Doxorubicin control wells as the 100% inhibition (low signal) control, percent inhibition EC50s (inflection point) and IC50 s were calculated for the compound dose responses.
Background: ATP-based viability assays read luminescence as a measure of living cells.

The next test concerns H358 cells. Put plainly: High-throughput proliferation (HTP) assay for H358 cells (CellTiter-Glo, 7 days). The test is classed as cell-based. The settings on record: Homo sapiens, NCI-H358, 168 h, read-out: H358 SMARCA2 IC50. As to the method:
Thawing vials: H358 cells (ATCC #CRL-5807™) were thawed from a cryovial containing approximately 1.6×10^6 cells frozen in 70% RPMI 1640 medium, 20% HI-FBS and 10% DMSO. Cells were thawed by submerging the bottom half of the vial in a 37° C. water bath and gently flicked until almost thawed. The cells were removed and transferred into a 15 mL conical tube containing 9 mL RPMI 1640 medium+10% HI-FBS and then centrifuged 200×g for 4 min before drawing off the media without disturbing the cell pellet to remove the DMSO. The cells were resuspended again in 15 mL of RPMI 1640 fresh complete media+10% HI-FBS and grown up in a T75 flask at 37° C. with 5% CO2 Incubator. Viability was measured to obtain baseline.
Preparing frozen stock vials: Cell density was counted in a stock flask. The culture was transferred to a 50 mL conical tube and spun down to remove medium, and then resuspend at 1-2×10^6 cells/mL in complete medium containing 10% DMSO and transferred to a 1 mL per vial.
as §1
Day 0: Assay ready plates were prepared by dispensing 50 nL of compound stock or DMSO in the appropriate wells of 384-well white CulturPlates using Echo550. Using the Multiflo, H358 cells at 50 μL/well were plated in RPMI 1640 complete media+10% HI-FBS+1% pen/strep at cell density determined [20,000 cells/mL (1,000 cells/well)] from growth curve. Treated cells were inclubated at 37° C., 5% CO2, relative humidity >90% for 7 days. CellTiter-Glo (CTG) ATP detection reagent was prepared according to manufacturer's specifications. Cell assay plates were removed from incubator and bring to room temperature (RT).
Using the MultiDrop liquid handler, 30 μL of CTG were added per well. Plates were placed on the multidrop dispenser shake for 5 seconds at RT. Plates were incubated for 30 minutes in the dark at RT before measuring luminescence using the Envison2104.
Data analysis: Using the DMSO control wells as the 0% inhibition (high signal) control and the 10 uM Doxorubicin control wells as the 100% inhibition (low signal) control, percent inhibition EC50s (inflection point) and IC50s were calculated for the compound dose responses.

Setting [2] is: FL-SMARCA4 IC>50, Table 3c.2, ATPase assay, enzyme 5 nM, ATP 250 uM, chicken mononucleosome 10 nM, 30 min preincubation.
Setting [3] is: Table 3d.1, read-out: FL-SMARCA2 IC>50.
[4] abbreviates: FL-SMARCA4 IC50, Table 3.2, ATPase assay, enzyme 5 nM, ATP 250 uM, chicken mononucleosome 10 nM, 30 min preincubation.

T1 sequence (P51531 with tags, fused parts or gaps): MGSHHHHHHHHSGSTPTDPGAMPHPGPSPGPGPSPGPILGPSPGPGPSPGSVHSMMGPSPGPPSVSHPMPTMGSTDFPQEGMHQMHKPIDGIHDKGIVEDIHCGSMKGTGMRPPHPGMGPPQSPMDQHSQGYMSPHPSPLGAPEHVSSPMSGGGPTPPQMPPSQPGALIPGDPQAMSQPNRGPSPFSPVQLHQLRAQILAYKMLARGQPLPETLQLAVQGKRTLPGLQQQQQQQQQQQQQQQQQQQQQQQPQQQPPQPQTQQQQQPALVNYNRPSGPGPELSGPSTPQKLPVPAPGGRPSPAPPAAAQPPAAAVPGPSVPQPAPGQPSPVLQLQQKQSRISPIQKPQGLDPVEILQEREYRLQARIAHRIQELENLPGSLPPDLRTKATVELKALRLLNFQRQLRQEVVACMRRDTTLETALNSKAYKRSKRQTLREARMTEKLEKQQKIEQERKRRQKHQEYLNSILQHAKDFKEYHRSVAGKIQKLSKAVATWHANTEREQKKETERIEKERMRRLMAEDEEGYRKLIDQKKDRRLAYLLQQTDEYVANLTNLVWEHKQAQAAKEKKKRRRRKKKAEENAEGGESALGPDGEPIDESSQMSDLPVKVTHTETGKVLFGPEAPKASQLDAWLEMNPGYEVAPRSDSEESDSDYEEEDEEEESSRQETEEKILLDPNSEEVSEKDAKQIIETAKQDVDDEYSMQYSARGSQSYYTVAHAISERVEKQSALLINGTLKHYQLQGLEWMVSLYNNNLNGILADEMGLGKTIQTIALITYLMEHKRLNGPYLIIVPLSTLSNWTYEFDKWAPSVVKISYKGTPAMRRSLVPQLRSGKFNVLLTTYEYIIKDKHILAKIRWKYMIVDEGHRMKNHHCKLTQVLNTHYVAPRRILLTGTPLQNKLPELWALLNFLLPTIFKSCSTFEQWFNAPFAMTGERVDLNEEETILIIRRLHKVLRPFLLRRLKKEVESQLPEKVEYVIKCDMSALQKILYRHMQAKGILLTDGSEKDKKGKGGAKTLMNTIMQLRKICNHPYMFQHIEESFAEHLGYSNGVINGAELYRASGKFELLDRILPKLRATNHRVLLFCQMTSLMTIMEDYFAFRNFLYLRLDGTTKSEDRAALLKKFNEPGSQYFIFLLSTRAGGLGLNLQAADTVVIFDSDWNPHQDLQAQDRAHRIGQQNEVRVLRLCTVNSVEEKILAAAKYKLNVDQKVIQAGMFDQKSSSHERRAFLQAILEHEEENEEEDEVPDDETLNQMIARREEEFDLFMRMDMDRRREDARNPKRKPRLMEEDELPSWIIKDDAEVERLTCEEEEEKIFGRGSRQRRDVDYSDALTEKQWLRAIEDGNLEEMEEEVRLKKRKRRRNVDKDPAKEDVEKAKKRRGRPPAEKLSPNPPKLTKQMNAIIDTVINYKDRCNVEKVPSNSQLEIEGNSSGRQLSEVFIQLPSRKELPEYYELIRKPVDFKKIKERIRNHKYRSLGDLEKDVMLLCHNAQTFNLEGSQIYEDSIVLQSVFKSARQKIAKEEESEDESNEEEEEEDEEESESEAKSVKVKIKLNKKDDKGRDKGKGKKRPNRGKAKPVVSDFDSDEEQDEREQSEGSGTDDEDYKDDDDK

As for `Cn1cc(C#Cc2cc(C(=O)Nc3cc(F)c(=O)n(CC(F)F)c3)sc2Cl)cn1` [Compound 5c], the IC50 is 75.9 nM against FL-SMARCA4 (setting [2]), 28.5 nM in test [1] (Table 3c.1), 1160 nM in the test with A549 cells and > 10000 nM with H358 cells.

As for `O=C(Nc1cc(F)c(=O)n(CC(F)F)c1)c1cc(C#CC2CCOCC2)c(Cl)s1` [Compound 22c], the IC50 was 60.8 nM against FL-SMARCA4 (setting [2]), 30.1 nM in test [1] (Table 3c.1), 664 nM in the test on A549 cells and > 10000 nM in the test with H358 cells.

Consider `O=C(Nc1cc(F)c(=O)n(CC(F)F)c1)c1cc(F)c(C(F)(F)F)s1` [Compound 25c], for which the IC50 in test [1] (Table 3c.1) was 14.2 nM; in the test with A549 cells, 614 nM; in the test on H358 cells, > 10000 nM.

As for `N#Cc1cccc(C#Cc2cc(C(=O)Nc3cc(F)c(=O)n(CC(F)F)c3)sc2Cl)c1` [Compound 34c], the IC50 against FL-SMARCA4 (setting [2]) was 233 nM; in test [1] (Table 3c.1) it was 93.8 nM; in the test with A549 cells, 1460 nM; in the test on H358 cells, > 10000 nM.

Regarding `O=C(Nc1cc(F)c(=O)n(CC(F)F)c1)c1cc(C#Cc2ccc(Cl)cc2)c(Cl)s1` [Compound 35c], the IC50 against FL-SMARCA4 (setting [2]) worked out at 905 nM; in test [1] (Table 3c.1), 698 nM; with A549 cells it was 3700 nM; in the test on H358 cells it was 8760 nM.

Take `O=C(Nc1cc(F)c(=O)n(CC(F)F)c1)c1cc(C(F)(F)F)c(Cl)s1` [Compound 37c]: the IC50 on FL-SMARCA4 (setting [2]) was 2490 nM; in test [1] (Table 3c.1) it was 482 nM; with A549 cells it was 9050 nM; with H358 cells it was > 10000 nM.

Regarding `Cc1ncc(C#Cc2cc(C(=O)Nc3cc(F)c(=O)n(CC(F)F)c3)sc2Cl)s1` [Compound 39c], the IC50 at FL-SMARCA4 (setting [2]) is 143 nM; in test [1] (Table 3c.1), 78 nM; in the test with A549 cells it was 1370 nM; with H358 cells, > 10000 nM.

With `O=C(Nc1cc(F)c(=O)n(CC(F)F)c1)c1cc(C#Cc2cnccn2)c(Cl)s1` [Compound 40c], the IC50 is 259 nM against FL-SMARCA4 (setting [2]), 99.5 nM in test [1] (Table 3c.1), 2830 nM in the test with A549 cells and > 10000 nM in the test on H358 cells.

On to `O=C(Nc1cc(F)c(=O)n(CC(F)F)c1)c1cc(C#Cc2ccccc2)c(Cl)s1` [Compound 41c], for which the IC50 was 250 nM on FL-SMARCA4 (setting [2]), 82.7 nM in test [1] (Table 3c.1), 4270 nM in the test on A549 cells and > 10000 nM with H358 cells.

Turning to `COc1cccc(C#Cc2cc(C(=O)Nc3cc(F)c(=O)n(CC(F)F)c3)sc2Cl)c1` [Compound 42c], the IC50 against FL-SMARCA4 (setting [2]) is 477 nM; in test [1] (Table 3c.1), 203 nM; with A549 cells, 5080 nM; with H358 cells it was > 10000 nM.

As to `N#Cc1ccc(C#Cc2cc(C(=O)Nc3cc(F)c(=O)n(CC(F)F)c3)sc2Cl)cc1` [Compound 43c], the IC50 is 329 nM on FL-SMARCA4 (setting [2]), 130 nM in test [1] (Table 3c.1), 2940 nM with A549 cells and > 10000 nM in the test on H358 cells.

As for `O=C(Nc1ccc(=O)n(CC(F)F)c1)c1cc(F)c(Cl)s1` [Compound 45c], the IC50 was 232 nM against FL-SMARCA4 (setting [2]), 98.1 nM in test [1] (Table 3c.1), 4260 nM with A549 cells and > 10000 nM with H358 cells.

With `O=C(Nc1cc(F)c(=O)n(CC(F)F)c1)c1cc(Cl)c(Cl)s1` [Compound 47c], the IC50 is 177 nM on FL-SMARCA4 (setting [2]), 65 nM in test [1] (Table 3c.1), 1410 nM with A549 cells and > 10000 nM in the test on H358 cells.

As to `O=C(Nc1cc(F)c(=O)n(CC(F)F)c1)c1sc(C(F)(F)F)cc1Cl` [Compound 48c], the IC50 was > 50000 nM against FL-SMARCA4 (setting [2]), 25300 nM in test [1] (Table 3c.1), > 10000 nM with A549 cells and > 10000 nM in the test with H358 cells.

Consider `CCn1cc(C#Cc2cc(C(=O)Nc3cc(F)c(=O)n(CC(F)F)c3)sc2Cl)cn1` [Compound 54c], for which the IC50 against FL-SMARCA4 (setting [2]) is 166 nM; in test [1] (Table 3c.1) it was 45.2 nM; in the test on A549 cells, 1920 nM; with H358 cells, > 10000 nM.

Regarding `O=C(Nc1cc(F)c(=O)n(CC(F)F)c1)c1cc(C#Cc2cccnn2)c(Cl)s1` [Compound 55c], the IC50 at FL-SMARCA4 (setting [2]) is 269 nM; in test [1] (Table 3c.1), 77.8 nM; in the test on A549 cells, 3780 nM; in the test on H358 cells, > 10000 nM.

`CNC(=O)c1cc(C#Cc2cc(C(=O)Nc3cc(F)c(=O)n(CC(F)F)c3)sc2Cl)on1` [Compound 55d]: the IC50 against FL-SMARCA4 (FL-SMARCA4 IC50) was 246 nM; in test [1] (setting [3]) it was 92.6 nM; with A549 cells, > 10000 nM; in the test on H358 cells, > 10000 nM.

As for `O=C(Nc1cc(F)c(=O)n(CC(F)F)c1)c1cc(C#Cc2cccc(Cl)c2)c(Cl)s1` [Compound 56c], the IC50 against FL-SMARCA4 (setting [2]) came out at 1040 nM; in test [1] (Table 3c.1), 297 nM; in the test with A549 cells, 4400 nM; with H358 cells, 9020 nM.

In the case of `N#Cc1cc(C(=O)Nc2cc(C#N)c(=O)n(CC(F)F)c2)sc1C(F)(F)F` [Compound 56d], the IC50 at FL-SMARCA4 (FL-SMARCA4 IC50) was 535 nM; in test [1] (setting [3]), 98.4 nM; in the test on A549 cells, 6240 nM; in the test on H358 cells, > 10000 nM.

Consider `O=C(Nc1cc(Cl)c(=O)n(CC(F)F)c1)c1cc(Cl)c(C(F)(F)F)s1` [Compound 79d], for which the figures for the IC50 (in test [1] (setting [3]); with A549 cells; in the test on H358 cells) were 43.2 nM, 3650 nM and > 10000 nM, respectively.

Turning to `Cc1nnc(C#Cc2cc(C(=O)Nc3cc(F)c(=O)n(CC(F)F)c3)sc2Cl)[nH]1` [Compound 127c], the IC50 in test [1] (Table 3c.1) was 352 nM; in the test with A549 cells, > 10000 nM; with H358 cells, > 10000 nM.

Consider `O=C(Nc1cc(F)c(=O)n(CC(F)F)c1)c1cc(C#Cc2ccnc(-c3ncco3)c2)c(Cl)s1` [Compound 150c], for which the IC50 against FL-SMARCA4 (setting [2]) was 14.5 nM; with A549 cells it was 932 nM; in the test on H358 cells, > 10000 nM.

`Cn1cncc1C#Cc1cc(C(=O)Nc2cc(F)c(=O)n(CC(F)F)c2)sc1Cl` [Compound 330]: the IC50 in the test with A549 cells was > 10000 nM; in the test on H358 cells, 8740 nM.

For the compound `CC(O)C#Cc1cc(C(=O)Nc2cc(F)c(=O)n(CC(F)F)c2)sc1Cl` (centres unmarked) [Compound 339], the results for the IC50 (on FL-SMARCA4 (setting [4]); in test [1] (Table 3.1); in the test with A549 cells) were 2320 nM, 943 nM and > 10000 nM, respectively.

Turning to `CC(CF)n1cc(NC(=O)c2cc(Cl)c(C(F)(F)F)s2)cc(F)c1=O` (centres unmarked) [Compound 340], the IC50 against FL-SMARCA4 (setting [4]) was 4890 nM; in test [1] (Table 3.1), 695 nM; with A549 cells, > 10000 nM.
